According to the NIST ThermoML archive (doi:10.1021/je060271a):
± gives the expanded uncertainty stated by the source.

Conditions: Liquid, Vibrating tube method

CCCC(=O)OCC(COC(=O)CCC)(COC(=O)CCC)COC(=O)CCC [pentaerythritol tetrabutyrate]
Conditions	mass density [kg/m3]
283.15 K, 30442 kPa	1076 ± 1.3
283.15 K, 30478 kPa	1076.1 ± 1.3
283.15 K, 30509 kPa	1076 ± 1.3
283.15 K, 30540 kPa	1076.1 ± 1.3
283.15 K, 30577 kPa	1076.1 ± 1.3
283.15 K, 30608 kPa	1076.1 ± 1.3
283.15 K, 30639 kPa	1076.1 ± 1.3
283.15 K, 30670 kPa	1076.1 ± 1.3
283.15 K, 30707 kPa	1076.1 ± 1.3
283.15 K, 30738 kPa	1076.1 ± 1.3
283.15 K, 30775 kPa	1076.2 ± 1.3
283.15 K, 30806 kPa	1076.3 ± 1.3
283.15 K, 30838 kPa	1076.2 ± 1.3
283.15 K, 30875 kPa	1076.1 ± 1.3
283.15 K, 30906 kPa	1076.2 ± 1.3
283.15 K, 30938 kPa	1076.3 ± 1.3
283.15 K, 30975 kPa	1076.3 ± 1.3
283.15 K, 31008 kPa	1076.3 ± 1.3
283.15 K, 31040 kPa	1076.3 ± 1.3
283.15 K, 31071 kPa	1076.3 ± 1.3
283.15 K, 31110 kPa	1076.4 ± 1.3
283.15 K, 31141 kPa	1076.4 ± 1.3
283.15 K, 31179 kPa	1076.4 ± 1.3
283.15 K, 31211 kPa	1076.3 ± 1.3
283.15 K, 31243 kPa	1076.4 ± 1.3
283.15 K, 31282 kPa	1076.4 ± 1.3
283.15 K, 31314 kPa	1076.4 ± 1.3
283.15 K, 31346 kPa	1076.4 ± 1.3
283.15 K, 31385 kPa	1076.5 ± 1.3
283.15 K, 31418 kPa	1076.6 ± 1.3
283.15 K, 31450 kPa	1076.4 ± 1.3
283.15 K, 31490 kPa	1076.5 ± 1.3
283.15 K, 31523 kPa	1076.5 ± 1.3
283.15 K, 31556 kPa	1076.5 ± 1.3
283.15 K, 31595 kPa	1076.5 ± 1.3
283.15 K, 31628 kPa	1076.7 ± 1.3
283.15 K, 31662 kPa	1076.7 ± 1.3
283.15 K, 31695 kPa	1076.6 ± 1.3
283.15 K, 31735 kPa	1076.6 ± 1.3
283.15 K, 31768 kPa	1076.7 ± 1.3
283.15 K, 31807 kPa	1076.7 ± 1.3
283.15 K, 31841 kPa	1076.9 ± 1.3
283.15 K, 31875 kPa	1076.7 ± 1.3
283.15 K, 31909 kPa	1076.8 ± 1.3
283.15 K, 31949 kPa	1076.8 ± 1.3
283.15 K, 31983 kPa	1076.9 ± 1.3
283.15 K, 32023 kPa	1076.9 ± 1.3
283.15 K, 32057 kPa	1076.8 ± 1.3
283.15 K, 32092 kPa	1076.8 ± 1.3
283.15 K, 32133 kPa	1076.8 ± 1.3
283.15 K, 32167 kPa	1076.9 ± 1.3
283.15 K, 32202 kPa	1076.9 ± 1.3
283.15 K, 32236 kPa	1076.9 ± 1.3
283.15 K, 32278 kPa	1077 ± 1.3
283.15 K, 32312 kPa	1076.9 ± 1.3
283.15 K, 32347 kPa	1077 ± 1.3
283.15 K, 32390 kPa	1077 ± 1.3
283.15 K, 32417 kPa	1077.1 ± 1.3
283.15 K, 32453 kPa	1077.1 ± 1.3
283.15 K, 32494 kPa	1077.2 ± 1.3
283.15 K, 32536 kPa	1077.1 ± 1.3
283.15 K, 32572 kPa	1077.1 ± 1.3
283.15 K, 32614 kPa	1077.1 ± 1.3
283.15 K, 32650 kPa	1077 ± 1.3
283.15 K, 32692 kPa	1077.2 ± 1.3
283.15 K, 32728 kPa	1077.1 ± 1.3
283.15 K, 32764 kPa	1077.2 ± 1.3
283.15 K, 32806 kPa	1077.1 ± 1.3
283.15 K, 32845 kPa	1077.2 ± 1.3
283.15 K, 32881 kPa	1077.2 ± 1.3
283.15 K, 32918 kPa	1077.2 ± 1.3
283.15 K, 32954 kPa	1077.3 ± 1.3
283.15 K, 32998 kPa	1077.3 ± 1.3
283.15 K, 33034 kPa	1077.2 ± 1.3
283.15 K, 33071 kPa	1077.4 ± 1.3
283.15 K, 33114 kPa	1077.3 ± 1.4
283.15 K, 33151 kPa	1077.4 ± 1.4
283.15 K, 33188 kPa	1077.3 ± 1.3
283.15 K, 33232 kPa	1077.5 ± 1.4
283.15 K, 33270 kPa	1077.5 ± 1.4
283.15 K, 33308 kPa	1077.4 ± 1.4
283.15 K, 33355 kPa	1077.6 ± 1.4
283.15 K, 33391 kPa	1077.5 ± 1.4
283.15 K, 33429 kPa	1077.5 ± 1.4
283.15 K, 33473 kPa	1077.6 ± 1.4
283.15 K, 33511 kPa	1077.5 ± 1.4
283.15 K, 33548 kPa	1077.5 ± 1.4
283.15 K, 33586 kPa	1077.6 ± 1.4
283.15 K, 33631 kPa	1077.7 ± 1.4
283.15 K, 33670 kPa	1077.7 ± 1.4
283.15 K, 33708 kPa	1077.7 ± 1.4
283.15 K, 33754 kPa	1077.7 ± 1.4
283.15 K, 33792 kPa	1077.6 ± 1.4
283.15 K, 33838 kPa	1077.7 ± 1.4
283.15 K, 33878 kPa	1077.8 ± 1.4
283.15 K, 33917 kPa	1077.8 ± 1.4
283.15 K, 34179 kPa	1077.9 ± 1.4
283.15 K, 34232 kPa	1078 ± 1.4
283.15 K, 34278 kPa	1078 ± 1.4
283.15 K, 34325 kPa	1078 ± 1.4
283.15 K, 34380 kPa	1078.1 ± 1.4
283.15 K, 34408 kPa	1078.1 ± 1.4
283.15 K, 34413 kPa	1078.1 ± 1.4
283.15 K, 34443 kPa	1078.1 ± 1.4
283.15 K, 34447 kPa	1078.3 ± 1.4
283.15 K, 34450 kPa	1078 ± 1.4
283.15 K, 34451 kPa	1078 ± 1.4
283.15 K, 34455 kPa	1078.1 ± 1.4
283.15 K, 34530 kPa	1078.2 ± 1.4
283.15 K, 34544 kPa	1078.1 ± 1.4
283.15 K, 34545 kPa	1078.1 ± 1.4
283.16 K, 104.2 kPa	1059 ± 1.3
283.16 K, 104.7 kPa	1059.1 ± 1.3
283.16 K, 105.7 kPa	1059 ± 1.3
283.16 K, 107.3 kPa	1059 ± 1.3
283.16 K, 108.9 kPa	1059.1 ± 1.3
283.16 K, 113.9 kPa	1059 ± 1.3
283.16 K, 119.6 kPa	1059.1 ± 1.3
283.16 K, 129.7 kPa	1059 ± 1.3
283.16 K, 145 kPa	1059.2 ± 1.3
283.16 K, 173.9 kPa	1059.1 ± 1.3
283.16 K, 201.7 kPa	1059.2 ± 1.3
283.16 K, 220.1 kPa	1059.2 ± 1.3
283.16 K, 241.7 kPa	1059.2 ± 1.3
283.16 K, 261.3 kPa	1059.2 ± 1.3
283.16 K, 284.4 kPa	1059.2 ± 1.3
283.16 K, 305.4 kPa	1059.2 ± 1.3
283.16 K, 329.3 kPa	1059.3 ± 1.3
283.16 K, 363.7 kPa	1059.2 ± 1.3
283.16 K, 391.3 kPa	1059.1 ± 1.9
283.16 K, 432.3 kPa	1059.2 ± 1.3
283.16 K, 466.5 kPa	1059.2 ± 1.3
283.16 K, 498.2 kPa	1059.2 ± 1.3
283.16 K, 527.5 kPa	1059.2 ± 1.3
283.16 K, 550.1 kPa	1059.3 ± 1.3
283.16 K, 577.4 kPa	1059.3 ± 1.3
283.16 K, 602.2 kPa	1059.4 ± 1.3
283.16 K, 628.6 kPa	1059.3 ± 1.3
283.16 K, 657.3 kPa	1059.4 ± 1.3
283.16 K, 694.8 kPa	1059.2 ± 1.3
283.16 K, 725.1 kPa	1059.3 ± 1.3
283.16 K, 756.3 kPa	1059.4 ± 1.3
283.16 K, 786.4 kPa	1059.4 ± 1.3
283.16 K, 816.8 kPa	1059.4 ± 1.3
283.16 K, 854 kPa	1059.4 ± 1.3
283.16 K, 886.5 kPa	1059.4 ± 1.3
283.16 K, 919.6 kPa	1059.5 ± 1.3
